According to PubChem BioAssay AID256 (DTP/NCI, 2004):
Inconclusive results and toxic doses are left out. How the source made its calls: active means survival T/C of 150% or more; inactive means T/C below 125% in these data.

System: CD2F1 mice, L1210 leukemia ip, survival T/C
Experiment: NCI In Vivo Anticancer Drug Screen. Data for tumor model L1210 Leukemia (intraperitoneal) in CD2F1 (CDF1) mice
Details: endpoint: mean survival time, higher = longer survival
In short: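 Activity against a transplanted murine tumor was judged by comparing the compound group with a vehicle group. The outcome in the treated animals was divided by that in the controls.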

[1] = dose: 100.0 mg/kg/injection, schedule: Q01DX009 (ip), vehicle: saline with Tween-80
[2] = dose: 200.0 mg/kg/injection, schedule: Q01DX009 (ip), vehicle: saline with Tween-80
[3] = dose: 400.0 mg/kg/injection, schedule: Q01DX009 (ip), vehicle: saline with Tween-80
[4] = dose: 100.0 mg/kg/injection, schedule: Q04DX003 (ip), vehicle: saline with Tween-80
[5] = dose: 200.0 mg/kg/injection, schedule: Q04DX003 (ip), vehicle: saline with Tween-80
[6] = dose: 400.0 mg/kg/injection, schedule: Q04DX003 (ip), vehicle: saline with Tween-80
[7] = dose: 50.0 mg/kg/injection, schedule: Q01DX009 (ip), vehicle: saline with Tween-80

Measured: T/C

COC(=O)C(N)CSSCC(N)C(=O)OC (stereo unspecified)
inactive: dose: 100.0 mg/kg/injection, schedule: Q01DX001 (ip), vehicle: saline 108 % of control | dose: 100.0 mg/kg/injection, schedule: Q01DX009 (ip), vehicle: saline 102 % of control | dose: 200.0 mg/kg/injection, schedule: Q01DX001 (ip), vehicle: saline 97 % of control | dose: 200.0 mg/kg/injection, schedule: Q01DX009 (ip), vehicle: saline 94 % of control | dose: 400.0 mg/kg/injection, schedule: Q01DX001 (ip), vehicle: saline 100 % of control | dose: 400.0 mg/kg/injection, schedule: Q01DX009 (ip), vehicle: saline 94 % of control

COC(=O)[C@@H]1[C@@H](O)[C@H](OC(=O)c2cc(OC)c(OC)c(OC)c2)C[C@@H]2CN3CCc4c([nH]c5ccccc45)[C@H]3C[C@@H]21
inactive: dose: 1.56 mg/kg/injection, schedule: Q01DX009 (ip), vehicle: saline sonified 93 % of control | dose: 3.13 mg/kg/injection, schedule: Q01DX009 (ip), vehicle: saline sonified 95 % of control | dose: 6.25 mg/kg/injection, schedule: Q01DX009 (ip), vehicle: saline sonified 102 % of control | dose: 12.5 mg/kg/injection, schedule: Q04DX003 (ip), vehicle: saline with Tween-80 103 % of control | dose: 25.0 mg/kg/injection, schedule: Q04DX003 (ip), vehicle: saline with Tween-80 103 % of control | dose: 50.0 mg/kg/injection, schedule: Q04DX003 (ip), vehicle: saline with Tween-80 103 % of control

Brc1ccc(-c2ccc(Br)cc2)cc1
inactive: dose: 100.0 mg/kg/injection, schedule: Q04DX003 (ip), vehicle: Klucel (hydroxypropylcellulose) (HPC) 105 % of control | dose: 200.0 mg/kg/injection, schedule: Q04DX003 (ip), vehicle: Klucel (hydroxypropylcellulose) (HPC) 95 % of control | dose: 400.0 mg/kg/injection, schedule: Q04DX003 (ip), vehicle: Klucel (hydroxypropylcellulose) (HPC) 95 % of control

O=C1CCCC2C(=O)CCCC12 (stereo unspecified)
inactive: [1] 97 % of control | [2] 103 % of control | [3] 103 % of control

CC(C)CCCC(C)C1CCC2C3CCC4CC(=O)C=CC4(C)C3CCC12C (stereo unspecified)
inactive: dose: 75.0 mg/kg/injection, schedule: Q04DX003 (sc), vehicle: steriod suspending solution 100 % of control | dose: 150.0 mg/kg/injection, schedule: Q04DX003 (sc), vehicle: steriod suspending solution 101 % of control | dose: 300.0 mg/kg/injection, schedule: Q04DX003 (sc), vehicle: steriod suspending solution 101 % of control

O=C(NC(CO)C(=O)OCc1ccccc1)OCc1ccccc1 (stereo unspecified)
inactive: [1] 107 % of control | [2] 96 % of control | [3] 91 % of control

O=C1NC(=O)C2C3C=CC(C3)C12 (stereo unspecified)
inactive: dose: 12.5 mg/kg/injection, schedule: Q04DX002 (ip), vehicle: saline with Tween-80 93 % of control | dose: 25.0 mg/kg/injection, schedule: Q04DX002 (ip), vehicle: saline with Tween-80 93 % of control | dose: 50.0 mg/kg/injection, schedule: Q04DX002 (ip), vehicle: saline with Tween-80 97 % of control | dose: 100.0 mg/kg/injection, schedule: Q01DX009 (ip), vehicle: saline sonified 96 % of control | [4] 94 % of control | dose: 200.0 mg/kg/injection, schedule: Q01DX009 (ip), vehicle: saline sonified 96 % of control | [5] 101 % of control | dose: 400.0 mg/kg/injection, schedule: Q01DX009 (ip), vehicle: saline sonified 98 % of control | [6] 100 % of control

COc1ccc(CCN2CC34C=CC(O3)C(C(=O)O)C4C2=O)cc1OCc1ccccc1 (stereo unspecified)
inactive: dose: 100.0 mg/kg/injection, schedule: Q04DX002 (ip), vehicle: saline with Tween-80 95 % of control | dose: 200.0 mg/kg/injection, schedule: Q04DX002 (ip), vehicle: saline with Tween-80 95 % of control | dose: 400.0 mg/kg/injection, schedule: Q04DX002 (ip), vehicle: saline with Tween-80 95 % of control

ClCCCN1CCN(CCCCl)CC1
inactive: dose: 6.25 mg/kg/injection, schedule: Q01DX009 (ip), vehicle: distilled water + alcohol 96 % of control | dose: 12.5 mg/kg/injection, schedule: Q01DX009 (ip), vehicle: distilled water + alcohol 95 % of control | dose: 25.0 mg/kg/injection, schedule: Q01DX009 (ip), vehicle: distilled water + alcohol 102 % of control | dose: 50.0 mg/kg/injection, schedule: Q01DX009 (ip), vehicle: distilled water + alcohol 103 % of control | dose: 100.0 mg/kg/injection, schedule: Q01DX009 (ip), vehicle: distilled water + alcohol 108 % of control

CCOC(=O)c1c[nH]c2cc(OCC3CC3)c(OCC3CC3)cc2c1=O
inactive: [4] 95 % of control | [5] 95 % of control | [6] 93 % of control

S=c1cc[nH]c(=S)[nH]1
inactive: dose: 12.5 mg/kg/injection, schedule: Q01DX009 (ip), vehicle: Klucel (hydroxypropylcellulose) (HPC) 102 % of control | dose: 25.0 mg/kg/injection, schedule: Q01DX009 (ip), vehicle: Klucel (hydroxypropylcellulose) (HPC) 98 % of control | dose: 50.0 mg/kg/injection, schedule: Q01DX009 (ip), vehicle: Klucel (hydroxypropylcellulose) (HPC) 101 % of control

O=c1cc(NCCCCc2ccccc2)[nH]c(=O)[nH]1
inactive: dose: 100.0 mg/kg/injection, schedule: Q01DX001 (ip), vehicle: saline with Tween-80 94 % of control | dose: 200.0 mg/kg/injection, schedule: Q01DX001 (ip), vehicle: saline with Tween-80 91 % of control | dose: 400.0 mg/kg/injection, schedule: Q01DX001 (ip), vehicle: saline with Tween-80 91 % of control

[Cl][Pt+2][Cl].[NH-]c1ccccc1F.[NH-]c1ccccc1F
inactive: dose: 15.63 mg/kg/injection, schedule: Q04DX003 (ip), vehicle: saline with Tween-80 112 % of control | dose: 31.25 mg/kg/injection, schedule: Q04DX003 (ip), vehicle: saline with Tween-80 108 % of control | dose: 62.5 mg/kg/injection, schedule: Q04DX003 (ip), vehicle: saline with Tween-80 115 % of control | dose: 125.0 mg/kg/injection, schedule: Q04DX003 (ip), vehicle: saline with Tween-80 93 % of control

CCOC(=O)CC(O)c1ccccc1 (stereo unspecified)
inactive: [7] 102 % of control | [1] 102 % of control | [2] 98 % of control

COc1cc(OC)c(NC(=O)OCCSc2ccc(Cl)cc2)cc1Cl
inactive: [7] 92 % of control | [1] 92 % of control | [2] 92 % of control

Cc1cn(C2CC3OP(O)(=S)OCC3O2)c(=O)[nH]c1=O (stereo unspecified)
inactive: dose: 8.7 mg/kg/injection, schedule: Q01DX005 (ip), vehicle: water 101 % of control | dose: 17.5 mg/kg/injection, schedule: Q01DX005 (ip), vehicle: water 102 % of control | dose: 35.0 mg/kg/injection, schedule: Q01DX005 (ip), vehicle: water 101 % of control | dose: 70.0 mg/kg/injection, schedule: Q01DX005 (ip), vehicle: water 104 % of control

CC(C)NC(=O)CCSCCC(=O)NC(C)C
inactive: dose: 25.0 mg/kg/injection, schedule: Q04DX002 (ip), vehicle: other 89 % of control | dose: 50.0 mg/kg/injection, schedule: Q04DX002 (ip), vehicle: other 93 % of control | dose: 100.0 mg/kg/injection, schedule: Q04DX002 (ip), vehicle: other 97 % of control | dose: 200.0 mg/kg/injection, schedule: Q04DX002 (ip), vehicle: other 89 % of control

CCSc1nc(C)cc(Cl)n1
inactive: [7] 102 % of control | [1] 104 % of control | [2] 105 % of control
